Here are results for 91 compounds from a melting point compilation (Tetko et al.; mined from patent text by program, amines drawn as free bases though some values may be those of a salt).

Compound `OCc1ccc(-c2ccccc2-c2nnnn2C(c2ccccc2)(c2ccccc2)c2ccccc2)cc1` returned a melting point of 167 °C.

As to `CCNc1nc(C#N)c(C#N)nc1-c1cccc(Br)c1`, the melting point was in the range of 127 to 128 °C.

Regarding `CCC1(CC)CN(C(C)(C)C)C(=O)C(CC)(CC)N1OC(=O)C(C)(C)C`, the melting point was in the range of 58 to 60 °C.

On to `N#CN1CCN(c2nn(S(=O)(=O)c3ccccc3)c3cc(Cl)ccc23)CC1`, for which the melting point lay within 179 to 181 °C.

With `CCOC(=O)[C@@](CC)(CCCNCCc1c[nH]c2ccc(F)cc12)C(OCC)OCC`, the melting point turned out to be 100 °C. For the compound `O=C(O)Cc1cccc2c1N=C(c1ccccc1)CC2=O`, the melting point was 238 to 240 °C. With `O=C(Nc1nccs1)c1nc(-c2cccc3ccccc23)[nH]c1-c1ccccc1`, the melting point is over 250 °C.

In turn, `COc1cc(OC)c2c(=O)[nH]c(-c3ccc(N4CCN(C)CC4)cc3)nc2c1` yielded a melting point of 252 to 254 °C. The value for `O=C1C2CCN(CC2)C1CC(c1ccccc1)c1ccccc1` (stereo unspecified) was 107 °C. Compound `Cc1ccc2cccc(OCc3c(Cl)ccc(S(=O)(=O)NCc4ccccc4)c3Cl)c2n1` showed a melting point of 140 to 142 °C. To `COC(=O)c1ccc(CCc2ccc(OC)cc2)nc1` belongs 82 °C; to `C=CCNC(=S)N1CCc2[nH]cnc2C1`, 172 °C. The value for `Brc1ccnc2cc3c(cc12)OCO3` was 147 to 149 °C; that for `CSC1CCN(C(=O)CCSC(C)=O)C1C(=O)O` (stereo unspecified) was 153 to 157 °C; that for `C[C@@H]1Cc2ccsc2[C@H](C)N1CCNS(=O)(=O)c1ccc(N)cc1` (relative stereo) was 126 to 131 °C.

Turning to `COc1cc(N(C)C)ccc1-c1nc2c(N[C@H]3[C@@H](C(N)=O)[C@@H]4C=C[C@H]3C4)c(Br)cnc2[nH]1`, the melting point fell in the range of 218 to 220 °C. To `N#CC1c2cc(OCc3ccccc3)cc(OCc3ccccc3)c2C=CN1C(=O)c1ccccc1` (stereo unspecified) belongs 123 to 125 °C; to `COc1nsc(OCCC#CI)c1C#N`, 71 to 73 °C. To `CNS(=O)(=O)CC(=O)C=C(C)N` belongs 158 to 162 °C; to `Cn1c(C(F)(F)F)cc(=O)n(-c2cc(OC3COC(=O)O3)c(Cl)cc2F)c1=O` (stereo unspecified), 165 to 167 °C; to `COc1cc(OC)c2cnc(-c3cc(C)c(OCCO)c(C)c3)nc2c1`, 169 to 170 °C. On to `COC(=C1NC(=O)C(=NO)C1=O)c1ccccc1`, for which the melting point stood at 174 °C. The value for `O=c1c2ccccc2n(-c2cccc([N+](=O)[O-])c2)c2nc3ccccc3n12` was 294 °C; that for `Cc1ccc(C=CC(=O)O)cn1` was 214 to 216 °C; that for `CCN(CC)C(=O)N1CCN(c2nc(-c3ccccc3)cs2)CC1` was 76 to 77 °C. As for `CCCc1c(OCCCCC#N)ccc(C(=O)c2ccccc2O)c1O`, the melting point lay in the range of 81 to 82 °C.

`O=C1CCC(c2ccc3c(c2)CCC2(CCN(C4CCC4)CC2)O3)=NN1` returned a melting point of 242 to 244 °C. The value for `O=c1c(Cl)c(OCc2ccc(F)cc2F)ccn1Cc1ccc2[nH]ccc2c1` was 152 to 153 °C; that for `CCOC(=O)c1nn(C)cc1C(F)F` was 30 to 31 °C. For `COC(=O)c1cccc2c1ccn2Cc1ccc(OCc2ccc3ccccc3n2)cc1`, the melting point is 128 to 131 °C. Compound `CC(C)N(Cc1ccc(C(F)(F)F)cc1)C(=O)C(Cl)Cl` displayed a melting point of 92 to 93 °C. Compound `Cc1cccc(-c2nc3cccnn3c2-c2ccnc(N)n2)c1` had a melting point of 250 to 251 °C. The value for `CN1Cc2c(C(N)=O)ncn2-c2ccc(F)c(Cl)c2C1=O` was 292 to 294 °C; that for `O=c1cc(-c2nc3ccccc3[nH]2)oc2ccccc12` was 232 °C; that for `CON1C=C2N=NC3=C(N2C1)N(C(C)C)CC=C3` was 159 to 162 °C. The value for `CCn1cc(CN(C(=O)C2CCCc3c(OCCCN(C)C)cccc32)c2ccc(C(C)C)cc2)cn1` (stereo unspecified) was 143 °C. Consider `ClC1CCCOC1c1ccccc1` (stereo unspecified), for which the melting point lay within 39.5 to 40.5 °C.

In the case of `CCCCCCCCCN(C[C@H]1CC[C@H](CN(CCCCCCCCC)C(=O)Nc2ccc(N(C)C)cc2)CC1)C(=O)Nc1ccc(N(C)C)cc1`, the melting point lay within 96 to 98 °C. Take `CC(=O)Oc1ccc(-n2c(-c3ccccc3)cc3c2CCCC3)cc1C(=O)O`: the melting point lay in the range of 155 to 162 °C. The value for `O=C(O)C(Oc1ccc(OCc2ccccc2)cc1)c1ccc(OCCCOc2ccc(Cl)cc2)cc1` (stereo unspecified) was 105 to 109 °C; that for `c1ccc(-c2nc(COc3ccc(CCCn4ccnc4)cc3)cs2)cc1` was 110 to 111 °C. To `CCN1CCN(C(=O)NC(C(=O)NC2C(=O)N(OCc3ccccc3)C2C)c2ccccc2)C(=O)C1=O` (stereo unspecified) belongs 100 to 105 °C; to `Cc1ccc(C23CN(C)CC2CC32SCCS2)cc1` (stereo unspecified), 81 to 86 °C. To `CCCOc1ccccc1-c1nc2nc(N3CCOCC3)ncc2c(=O)[nH]1` belongs 176 to 177 °C; to `CN(C)c1ccc(-c2cc3nccnc3[nH]2)cc1CCCO`, 203 to 204 °C. Turning to `O=C1CSC(=S)N1c1ccccn1`, the melting point is 98 °C. To `CC(=N)Nc1ccc(CCc2nc(NC(C)=O)sc2Cc2ccc(S(C)(=O)=O)cc2)cc1` belongs 81.5 to 83 °C; to `COC(=O)c1cn2c(n1)COc1ccccc1-2`, 133 to 134 °C; to `O=C(NCCc1cccs1)C1CC2C=CC1C2` (stereo unspecified), 71 to 72 °C. To `COC(=O)c1ccc(CO)cc1SCc1ccccc1` belongs 89.5 to 92 °C; to `CCC(CC)(CO)c1cc(Cl)nnc1Cl`, 85 to 87 °C. On to `COc1ccc2cc(CC(=O)O)ccc2c1`, for which the melting point fell in the range of 173 to 174 °C. The value for `CCC(=O)c1cc2cc(OC)ccc2[nH]1` was 170 to 172 °C. The value for `CCOC(=O)C=Cc1cc([N+](=O)[O-])ccc1C` was 44 °C; that for `O=c1c2ccc(Cl)cc2[nH]c2c(=O)n(-c3ccc(Cl)cc3)nc(O)c12` was over 400 °C. The value for `Nc1ccc(Cl)cc1C(=O)Nc1ccc(S(=O)(=O)N2CCOCC2)cc1` was 229 to 231 °C.

Turning to `CC1(C)Oc2ccc(S(=O)(=O)c3cccc(O)c3)cc2[C@@H](Nc2ccnc(Cl)n2)[C@]1(C)O`, the melting point was over 280 °C.

As to `CCCCc1n[nH]c(=S)n(N)c1=O`, the melting point amounted to 131 °C. The value for `CCCCCCCCC(OC(C)=O)C1=CC(=O)OC1O` (stereo unspecified) was 54 to 55 °C; that for `COc1ccc(N2CCN(c3cc4c(cc3-c3cccnc3)OC(C)(C)C4)CC2)cc1` was 177 to 180 °C.

For the compound `COc1cc(Nc2nc3cccc(-c4cccc(N)c4)c3o2)cc(OC)c1OC`, the melting point lay within 145 to 170 °C.

With `Cc1csc(N)c1S(N)(=O)=O`, the melting point fell in the range of 142 to 144 °C.

`CNC(=O)C(=O)CCCCCCSc1ccc(-c2ccccc2)cc1` gave a melting point of 131 to 132 °C.

In turn, `O=C1OCc2cc(CO)ccc21` gave a melting point of 126 °C.

`O=C(NCCCCOc1ccc(-n2ccnc2)cc1)c1ccc(Br)cc1`: the melting point was in the range of 140 to 141 °C. To `C/C=C/CNC(=O)N1CC(Oc2cccc(C(F)(F)F)c2)C1` belongs 127 to 128 °C; to `CC1(C)OC(=O)C(Oc2ccc3ccccc3n2)=C1c1ccc(S(C)(=O)=O)cc1`, 141 to 142 °C. To `N#Cc1ccc(-c2csc(N3C(=O)OC[C@H]3CF)n2)cc1` belongs 195 to 196 °C; to `CSc1ncncc1C1c2c(F)cccc2CC1(C)C` (stereo unspecified), 81 to 82 °C; to `CCOC(=O)c1cn2c(ccc3ccc(OC)cc32)n1`, 146 to 148 °C. To `O=C(Nc1cc(Cl)cc(Cl)c1)c1cnc(Nc2ccccc2)nc1C(F)(F)F` belongs 228 to 229 °C. Take `CCc1cc(CO)c(OC)nc1C`: the melting point lay in the range of 53 to 55 °C.

Regarding `CCOC(=O)Nc1ccc2c(c1)C(c1ccccc1Cl)S(=O)(=O)CCC(=O)N2` (stereo unspecified), the melting point was in the range of 295 to 296 °C. To `N#CC(C#N)=C1Sc2nc3ccc([N+](=O)[O-])cc3nc2S1` belongs 220 to 222 °C. The value for `CCn1c2ccc(C=O)cc2c2ccc3ccccc3c21` was 135 to 140 °C; that for `CN(C(=O)Cc1ccccc1)c1ccc(OC23CC4CC(CC(C4)C2)C3)cc1` was 89 to 91 °C; that for `CC(C)[C@H](NC(=O)OCC1c2ccccc2-c2ccccc21)C(=O)N[C@@H](C)C(=O)O` was 122 to 123 °C.

`COC(=O)c1cc(C(=O)N(C)CC(=O)N(C)C)c2cc(Cc3ccc(F)cc3)cnc2c1O` had a melting point of 99 to 100 °C. The value for `Cc1ccc(S(=O)(=O)N(c2ccc(Cl)cc2[N+](=O)[O-])C(C)C)cc1` was 112 to 114 °C; that for `OCc1cn(-c2ccc(OC(F)(F)F)cc2)cn1` was 105 to 106 °C. For `CCOC(=O)c1cnn2c1c(N1CCN(C)CC1)nc1ccccc12`, the melting point lay within 234 to 236 °C. In the case of `O=C(Cn1c(-c2cccs2)ncc(NC(=O)OCc2ccccc2)c1=O)NC(Cc1ccccc1)C(=O)C(F)(F)F` (stereo unspecified), the melting point was in the range of 108 to 111 °C. To `COc1cc2oc(=O)c(CCN3CCN(c4ccccc4)CC3)c(C)c2cc1OC` belongs 169 to 172 °C; to `CC1(C)CCC(S)(CCOC(=O)CCC(=O)O)CC1`, 55 to 60 °C. To `CS(=O)(=O)c1ccc(-n2cc(C(F)(F)F)nc2-c2ccc(-c3ccco3)cc2)cc1` belongs 82 to 84 °C; to `CCOC(=O)CN(c1ccc(Cl)cc1C(O)c1ccccc1Cl)S(=O)(=O)c1ccc(OC)c(OC)c1` (stereo unspecified), 86 °C.

`Clc1cccc(-c2ccc3nncn3n2)c1`: the melting point was in the range of 175 to 177 °C.

As for `CCOC(=O)OC1=C(c2c(C)cc(C)cc2C)C(=O)N(C)C12CCN(OC)CC2`, the melting point was in the range of 134 to 136 °C.

In turn, `O=C(O)Cc1oc2ccc(Cl)cc2c1-c1ccccc1` showed a melting point of 194 to 195 °C. Consider `CNNC(=O)Nc1ncnc2cc(OC)c(OC)cc12`, for which the melting point was 246 to 247 °C.

The compound `COC(=O)c1ccc(C(=O)Nc2cccc(Nc3nc(-c4cccnc4)cs3)c2)cc1` yielded a melting point of 237 °C.
